Test results as given in patent US20260226068A1, “IMIDAZOTRIAZINE IL-17A MODULATORS AND USES THEREOF” (DICE ALPHA, INC., priority 2023, published 2026).

Tests used:
IL-17A/A = target: T1, IL-17A/A (Homo sapiens, UniProt Q16552); assay: IL-17A/A HEK-Blue cell assay (SEAP reporter); type: cell-based; details: HEK-Blue IL-17A reporter cells, IL17A/A 5 ng/mL, 20 hours, SEAP read at A630; read-out: HEK-Blue IL17AA (IC50 for IL-17A/A inhibition)
T1 construct: purchased Genscript Z03228
T1 sequence (Q16552 24-155): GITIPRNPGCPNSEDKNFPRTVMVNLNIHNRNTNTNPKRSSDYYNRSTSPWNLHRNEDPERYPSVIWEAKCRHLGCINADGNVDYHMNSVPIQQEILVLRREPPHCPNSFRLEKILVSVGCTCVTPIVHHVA
Procedure: (§1) The HEK-Blue IL-17A reporter cell line (Fisher #NC 1408637) was used for cell-based IL-17A/A inhibition assays. Cells were grown and prepared for assays according to the manufacturer's instructions. This cell line consists of HEK 293 cells that were designed to expressed IL-17RA, IL-17RC, and the Act1 adapter molecule, the combination of which, when stimulated by IL-17A/A or IL17A/F activates a […] promoter and drives expression of the recombinant Secreted Alkaline Phosphatase (SEAP) gene. Media from the cells is then added to a development reagent (Quanti-Blue Substrate, Fisher #NC971 1613), and read at A630.
(§2) Compounds were dispensed in DMSO to an empty clear 384-well tissue culture plate in a titration ranging from 10 μM to 27 pM, with DMSO added to every well to a final concentration of […]. Cells were then added to the plate (45 μL/well at a concentration of 280,000 cells/mL). IL17A/A (Genscript #Z03228) or IL17A/F (R&D Systems) was added to the plate to a final concentration of 5 ng/mL and a final well volume of 50 μL. The cells, compound, and IL-17A/A or IL17A/F were then incubated for 20 hours before media was removed for SEAP analysis. The resulting inhibition curve was then analyzed using Dotmatics' integrated 4-parameter fit screening protocol to generate IC50 values.
(§3) Table 2 includes IC50 values for IL-17A/A and IL-17A/F inhibition of selected compounds; with compounds having a IC50 of A<100 nM; B 100-1000 nM; and C>1000 nM.

IL-17A/F = target: T2, IL-17A/F (Homo sapiens, UniProt Q16552+Q96PD4); assay: IL-17A/F HEK-Blue cell assay (SEAP reporter); type: cell-based; details: HEK-Blue IL-17A reporter cells, IL17A/F 5 ng/mL, 20 hours, SEAP read at A630; read-out: HEK-Blue IL17AF (IC50 for IL-17A/F inhibition)
T2 construct: purchased R&D Systems
T2 sequence (Q16552 24-155): T1 sequence (Q16552 24-155)
T2 sequence (Q96PD4 31-163): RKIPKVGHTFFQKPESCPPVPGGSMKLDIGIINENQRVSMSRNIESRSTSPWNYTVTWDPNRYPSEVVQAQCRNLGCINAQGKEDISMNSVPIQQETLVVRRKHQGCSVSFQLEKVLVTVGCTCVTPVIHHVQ
Procedure: as §1, §2, §3

IC50 (IL-17A/A) | IC50 (IL-17A/F) | Compound
100 to 1000 nM | > 1000 nM | CCn1nccc1C(=O)N[C@H](c1cn2nc(CC3C[C@@H](C(F)(F)F)CNC3=O)c(N3CCOCC3)nc2n1)C1CCC(F)(F)CC1 (mixture of isomers) [Compound 19, N-((1S)-(4,4-difluorocyclohexyl)(3-morpholino-2-(((5R)-2-oxo-5-(trifluoromethyl)piperidin-3-yl)methyl)imidazo[1,2-b][1,2,4]triazin-6-yl)methyl)-1-ethyl-1H-pyrazole-5-carboxamide]
< 100 nM | > 1000 nM | CCn1nccc1C(=O)N[C@H](c1cn2nc(CC3C[C@@H](C(F)(F)F)CNC3=O)cnc2n1)[C@H]1CC[C@H](C)CC1 (single isomer, unassigned) [Compound 1]
100 to 1000 nM | > 1000 nM | CCn1nccc1C(=O)N[C@H](c1cn2nc(CC3C[C@@H](C(F)(F)F)CNC3=O)cnc2n1)[C@H]1CC[C@H](C)CC1 (single isomer, unassigned) [Compound 2]
< 100 nM | > 1000 nM | CCn1nccc1C(=O)N[C@H](c1cn2nc(CC3C[C@@H](C(F)(F)F)CNC3=O)cnc2n1)C1CCC(F)(F)CC1 (single isomer, unassigned) [Compound 4]
100 to 1000 nM | > 1000 nM | CCn1nccc1C(=O)N[C@H](c1cn2nc(CC3C[C@@H](C(F)(F)F)CNC3=O)cnc2n1)C1CCC(F)(F)CC1 (single isomer, unassigned) [Compound 5]
< 100 nM | 100 to 1000 nM | CCn1nccc1C(=O)N[C@H](c1cn2nc(CC3C[C@@H](C(F)(F)F)CNC3=O)c(N3CCOCC3)nc2n1)C1CCC(F)(F)CC1 (single isomer, unassigned) [Compound 17]
< 100 nM | > 1000 nM | CCn1nccc1C(=O)N[C@H](c1cn2nc(CC3C[C@@H](C(F)(F)F)CNC3=O)c(N3CCOCC3)nc2n1)C1CCC(F)(F)CC1 (single isomer, unassigned) [Compound 18]
< 100 nM | > 1000 nM | O=C(N[C@H](c1cn2nc(CC3C[C@@H](C(F)(F)F)CNC3=O)c(N3CCOCC3)nc2n1)C1CCC(F)(F)CC1)c1nonc1C1CC1 (single isomer, unassigned) [Compound 20]
< 100 nM | > 1000 nM | O=C(N[C@H](c1cn2nc(CC3C[C@@H](C(F)(F)F)CNC3=O)c(N3CCOCC3)nc2n1)C1CCC(F)(F)CC1)c1nonc1C1CC1 (single isomer, unassigned) [Compound 21]
< 100 nM | 100 to 1000 nM | CCn1nccc1C(=O)N[C@H](c1cn2nc(CC3C[C@@H](C(F)(F)F)CNC3=O)c(N3CCOCC3)nc2n1)[C@H]1CC[C@H](C)CC1 (single isomer, unassigned) [Compound 22]
< 100 nM | > 1000 nM | CCn1nccc1C(=O)N[C@H](c1cn2nc(CC3C[C@@H](C(F)(F)F)CNC3=O)c(N3CCOCC3)nc2n1)[C@H]1CC[C@H](C)CC1 (single isomer, unassigned) [Compound 23]
100 to 1000 nM | > 1000 nM | CCn1nccc1C(=O)N[C@H](c1cn2nc(C[C@H]3C[C@@H](C(F)(F)F)CNC3=O)cnc2n1)[C@@H]1CCCC(F)(F)C1 (single isomer, unassigned) [Compound 31]
100 to 1000 nM | > 1000 nM | O=C(N[C@H](c1cn2nc(C[C@@H]3C[C@@H](C(F)(F)F)CNC3=O)cnc2n1)C1CCC(F)(F)CC1)c1nonc1C1CC1 (single isomer, unassigned) [Compound 33]
< 100 nM | 100 to 1000 nM | CCn1nccc1C(=O)N[C@H](c1cn2nc(CC3C[C@@H](C(F)(F)F)CNC3=O)c(N(C)C)nc2n1)C1CCC(F)(F)CC1 (single isomer, unassigned) [Compound 48]
< 100 nM | > 1000 nM | CCn1nccc1C(=O)N[C@H](c1cn2nc(CC3C[C@@H](C(F)(F)F)CNC3=O)c(N(C)C)nc2n1)C1CCC(F)(F)CC1 (single isomer, unassigned) [Compound 49]
100 to 1000 nM | > 1000 nM | CCn1nccc1C(=O)N[C@H](c1cn2nc(CC3C[C@H](C(F)(F)F)CNC3=O)c(N3CCOCC3)nc2n1)C1CCC(F)(F)CC1 (single isomer, unassigned) [Compound 50]

IC50 (IL-17A/A) | IC50 (IL-17A/F) | Compound
100 to 1000 nM | > 1000 nM | CCn1nccc1C(=O)N[C@H](c1cn2nc(CC3C[C@H](C(F)(F)F)CNC3=O)c(N(C)C)nc2n1)C1CCC(F)(F)CC1 (single isomer, unassigned) [Compound 51]
< 100 nM | 100 to 1000 nM | CCn1nccc1C(=O)N[C@H](c1cn2nc(CC3C[C@H](C(F)(F)F)CNC3=O)c(N3CCOCC3)nc2n1)C1CCC(F)(F)CC1 (single isomer, unassigned) [Compound 54]
< 100 nM | 100 to 1000 nM | CCn1nccc1C(=O)N[C@H](c1cn2nc(CC3C[C@H](C(F)(F)F)CNC3=O)c(N(C)C)nc2n1)C1CCC(F)(F)CC1 (single isomer, unassigned) [Compound 55]
< 100 nM | 100 to 1000 nM | CCn1nccc1C(=O)N[C@H](c1cn2nc(C[C@H]3C[C@@H](C(F)(F)F)CNC3=O)c(C3CCOC3)nc2n1)C1CCC(F)(F)CC1 (single isomer, unassigned) [Compound 61]
< 100 nM | 100 to 1000 nM | CCn1nccc1C(=O)N[C@H](c1cn2nc(C[C@H]3C[C@@H](C(F)(F)F)CNC3=O)c(C3CCOC3)nc2n1)C1CCC(F)(F)CC1 (single isomer, unassigned) [Compound 62]
100 to 1000 nM | > 1000 nM | CCn1nccc1C(=O)N[C@H](c1cn2nc(C[C@@H]3CC(F)(F)CNC3=O)cnc2n1)C1CCC(F)(F)CC1 (single isomer, unassigned) [Compound 63]
< 100 nM | > 1000 nM | CCn1nccc1C(=O)N[C@H](c1cn2nc(CC3CC(F)(F)CNC3=O)c(N3CCOCC3)nc2n1)C1CCC(F)(F)CC1 (single isomer, unassigned) [Compound 64]
< 100 nM | > 1000 nM | CCn1nccc1C(=O)N[C@H](c1cn2nc(CC3CC(F)(F)CNC3=O)c(N3CCOCC3)nc2n1)C1CCC(F)(F)CC1 (single isomer, unassigned) [Compound 65]
< 100 nM | < 100 nM | CCn1nccc1C(=O)N[C@H](c1cn2nc(C[C@H]3C[C@@H](C(F)(F)F)CNC3=O)c(C3CCCOC3)nc2n1)[C@H]1CCCC(F)(F)C1 (single isomer, unassigned) [Compound 68]
< 100 nM | 100 to 1000 nM | CCn1nccc1C(=O)N[C@H](c1cn2nc(C[C@H]3C[C@@H](C(F)(F)F)CNC3=O)c(C3CCCOC3)nc2n1)[C@@H]1CCCC(F)(F)C1 (single isomer, unassigned) [Compound 71]
100 to 1000 nM | – | CCn1nccc1C(=O)N[C@H](c1cn2nc(CC3C[C@H](C(F)(F)F)CNC3=O)cnc2n1)C1CCC(F)(F)CC1 (stereo partly drawn) [Compound 14, N—((S)-(4,4-difluorocyclohexyl)(2-(((5S)-2-oxo-5-(trifluoromethyl)piperidin-3-yl)methyl)imidazo[1,2-b][1,2,4]triazin-6-yl)methyl)-1-ethyl-1H-pyrazole-5-carboxamide]
100 to 1000 nM | – | CCn1nccc1C(=O)N[C@H](c1cn2nc(C[C@H]3C[C@H](C(F)(F)F)CNC3=O)cnc2n1)C1CCC(F)(F)CC1 [Compound 52]
100 to 1000 nM | – | CC(C)n1nccc1C(=O)N[C@H](c1cn2nc(C[C@@H]3C[C@@H](C(F)(F)F)CNC3=O)cnc2n1)C1CCC(F)(F)CC1 [Compound 202]
< 100 nM | – | CCn1nccc1C(=O)N[C@H](c1cn2nc(C[C@H]3C[C@@H](C(F)(F)F)CNC3=O)c(C(C)(C)F)nc2n1)C1CCC(F)(F)CC1 [Compound 233, N—((S)-(4,4-difluorocyclohexyl)(3-(2-fluoropropan-2-yl)-2-(((3R,5R)-2-oxo-5-(trifluoromethyl)piperidin-3-yl)methyl)imidazo[1,2-b][1,2,4]triazin-6-yl)methyl)-1-ethyl-1H-pyrazole-5-carboxamide]
100 to 1000 nM | – | CC(F)(F)C(=O)N[C@H](c1cn2nc(C[C@H]3C[C@@H](C(F)(F)F)CNC3=O)c(C3CCOCC3)nc2n1)C1CCC(F)(F)CC1 [Compound 438, N—((S)-(4,4-difluorocyclohexyl)(2-(((3R,5R)-2-oxo-5-(trifluoromethyl)piperidin-3-yl)methyl)-3-(tetrahydro-2H-pyran-4-yl)imidazo[1,2-b][1,2,4]triazin-6-yl)methyl)-2,2-difluoropropanamide]
